Test [1] addresses T1, Thiamine transporter ThiT (Lactococcus lactis subsp. cremoris (strain MG1363), UniProt A2RI47).
T1 sequence (A2RI47 whole entry): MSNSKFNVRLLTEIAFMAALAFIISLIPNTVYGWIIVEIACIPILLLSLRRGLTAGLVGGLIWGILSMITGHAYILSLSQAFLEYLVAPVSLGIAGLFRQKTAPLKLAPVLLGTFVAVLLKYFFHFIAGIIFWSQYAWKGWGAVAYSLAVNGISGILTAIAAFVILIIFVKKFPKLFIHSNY
Briefly: Binding affinity to wild-type Lactococcus lactis MG1363 N-terminal His8-tagged ThiT expressed in Lactococcus lactis NZ9000 by isothermal calorimetric titration method.

Test [2] has as its target Thiamine transporter ThiT (Lactococcus lactis subsp. cremoris (strain MG1363), UniProt A2RI47, H125N). Briefly: Binding affinity to Lactococcus lactis MG1363 N-terminal His8-tagged ThiT His125Asn mutant expressed in Lactococcus lactis NZ9000 by isothermal calorimetric titration method. (Isothermal titration calorimetry measures the heat released or taken up as one component is titrated into another.)

The target of test [3] is Thiamine transporter ThiT (Lactococcus lactis subsp. cremoris (strain MG1363), UniProt A2RI47, H125A). Briefly: Binding affinity to Lactococcus lactis MG1363 N-terminal His8-tagged ThiT His125Ala mutant expressed in Lactococcus lactis NZ9000 by isothermal calorimetric titration method.
Test [4] deals with Thiamine transporter ThiT (Lactococcus lactis subsp. cremoris (strain MG1363), UniProt A2RI47, W34A). Briefly: Binding affinity to Lactococcus lactis MG1363 N-terminal His8-tagged ThiT Trp34Ala mutant expressed in Lactococcus lactis NZ9000 incubated for 5 secs measured over 20 secs by fluorescence spectrophotometric method.
In test [5] the target is Thiamine transporter ThiT (Lactococcus lactis subsp. cremoris (strain MG1363), UniProt A2RI47, E84Q). In words: Binding affinity to Lactococcus lactis MG1363 N-terminal His8-tagged ThiT Glu84Gln mutant expressed in Lactococcus lactis NZ9000 by isothermal calorimetric titration method.
For test [6], the target named is T1, Thiamine transporter ThiT. Briefly: Binding affinity to wild-type Lactococcus lactis MG1363 N-terminal His8-tagged ThiT expressed in Lactococcus lactis NZ9000 incubated for 10 secs measured over 15 secs by fluorescence spectrophotometric method.
For test [7], the target named is Thiamine transporter ThiT (Lactococcus lactis subsp. cremoris (strain MG1363), UniProt A2RI47, E84A). In words: Binding affinity to Lactococcus lactis MG1363 N-terminal His8-tagged ThiT Glu84Ala mutant expressed in Lactococcus lactis NZ9000 by isothermal calorimetric titration method.
Test [8] has as its target Thiamine transporter ThiT (Lactococcus lactis subsp. cremoris (strain MG1363), UniProt A2RI47, E84D). Briefly: Binding affinity to Lactococcus lactis MG1363 N-terminal His8-tagged ThiT Glu84Asp mutant expressed in Lactococcus lactis NZ9000 by isothermal calorimetric titration method.

Molecules are shown by their SMILES.

Thiamine transporter ThiT (Lactococcus lactis subsp. cremoris (strain MG1363), UniProt A2RI47, E84Q), sequence (A2RI47 whole entry E84Q): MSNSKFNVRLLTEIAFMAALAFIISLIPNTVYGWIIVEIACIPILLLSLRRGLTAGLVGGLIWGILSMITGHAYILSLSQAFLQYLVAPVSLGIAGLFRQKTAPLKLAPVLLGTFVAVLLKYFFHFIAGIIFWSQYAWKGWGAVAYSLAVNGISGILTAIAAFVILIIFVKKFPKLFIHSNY
Thiamine transporter ThiT (Lactococcus lactis subsp. cremoris (strain MG1363), UniProt A2RI47, H125A), sequence (A2RI47 whole entry H125A): as the sequence (A2RI47 whole entry E84Q) above, with Q84E, H125A counted along it
Thiamine transporter ThiT (Lactococcus lactis subsp. cremoris (strain MG1363), UniProt A2RI47, E84D), sequence (A2RI47 whole entry E84D): as the sequence (A2RI47 whole entry E84Q) above, with Q84D counted along it
Thiamine transporter ThiT (Lactococcus lactis subsp. cremoris (strain MG1363), UniProt A2RI47, W34A), sequence (A2RI47 whole entry W34A): as the sequence (A2RI47 whole entry E84Q) above, with W34A, Q84E counted along it
Thiamine transporter ThiT (Lactococcus lactis subsp. cremoris (strain MG1363), UniProt A2RI47, E84A), sequence (A2RI47 whole entry E84A): as the sequence (A2RI47 whole entry E84Q) above, with Q84A counted along it
Thiamine transporter ThiT (Lactococcus lactis subsp. cremoris (strain MG1363), UniProt A2RI47, H125N), sequence (A2RI47 whole entry H125N): as the sequence (A2RI47 whole entry E84Q) above, with Q84E, H125N counted along it

By Kd is commonly meant the concentration at which binding is half-saturated. Low values mean a tighter complex, high ones a looser complex. `Cc1cc(CO)cc(Cc2cnc(C)nc2N)c1`: the dissociation constant Kd in test [1] was 1.99 µM. As for `Cc1ncc(C[n+]2csc(CCO)c2C)c(N)n1` [THIAMINE ION], the Kd in test [2] was determined as 0.0136 µM; in test [3] it was 0.0149 µM; in test [4], 0.00035 µM; in test [5], 13.6 µM; in test [6], 0.000122 µM; in test [7] it was 3.65 µM. In test [8], this molecule gave a Kd of 0.00221 µM. For `Cc1ncc(Cc2csc(COP(=O)(O)OP(=O)(O)O)c2C)c(N)n1`, in test [6], the Kd was 0.209 µM.

In turn, `Cc1ncc(Cc2csc(CCS[C@@H]3O[C@H](CO)[C@@H](O)[C@H](O)[C@H]3O)c2C)c(N)n1` displayed a Kd in test [6] of 0.183 µM.

`Cc1ncc(Cc2cccc(CCO)c2)c(N)n1`: in test [6], the Kd amounted to 0.266 µM. Molecule `Cc1ncc(Cc2csc(CNCC34CC5CC(CC(C5)C3)C4)c2C)c(N)n1` came in with a Kd in test [1] of 49.8 µM. For the molecule `Cc1ncc(C[n+]2csc(CCO[P@](=O)(O)OP(=O)(O)O)c2C)c(N)n1` [COCARBOXYLASE], the Kd in test [6] was determined as 0.0016 µM. Molecule `Cc1ncc(Cc2cccc(CO)c2)c(N)n1` came in with a dissociation constant (Kd) in test [6] of 0.528 µM. In test [6], `Cc1ncc(Cc2csc(CCOC(=O)c3c[nH]c4ccccc34)c2C)c(N)n1` came in with a Kd of 0.0201 µM. In turn, `Cc1ncc(Cc2csc(CNCC(c3ccccc3)c3ccccc3)c2C)c(N)n1` came in with a dissociation constant (Kd) in test [6] of 0.168 µM. `Cc1ncc(Cc2csc(CNCc3ccccn3)c2C)c(N)n1` came in with an equilibrium dissociation constant (Kd) in test [6] of 0.0967 µM. Molecule `Cc1ncc(Cn2cc(CCO)nn2)c(N)n1` came in with a Kd in test [1] of 28.6 µM. As to `Cc1ncc(Cc2csc(COCc3ccccc3)c2C)c(N)n1`, the Kd in test [6] was 0.0403 µM. In test [1], `Cc1ncc(Cc2cc(CO)cc(C(F)(F)F)c2)c(N)n1` registered a dissociation constant Kd of 2.3 µM. For the molecule `Cc1ncc(C[n+]2cccc(CCO)c2C)c(N)n1`, the Kd in test [6] was determined as 0.00018 µM.

The values are drawn from ChEMBL document CHEMBL4261509, “Insight into the complete substrate-binding pocket of ThiT by chemical and genetic mutations” (Medchemcomm, 2017).
